Patent publication US20060166310A1, “Serotonin receptor” (Inpharmatica Ltd., priority 2002, published 2006)

Columns and labels:
INPIONCH1 = target: T1, INPIONCH1 (Homo sapiens, UniProt Q401N2); assay: Whole cell patch-clamp of HEK293 cells transfected with INPIONCH1; format: cell-based; conditions: for activation of current on application: cells transfected with INPIONCH1
T1 construct: V5 (C); His (C); expressed in transfected cells; host or cells: HEK293
T1 sequence (Q401N2 2-412): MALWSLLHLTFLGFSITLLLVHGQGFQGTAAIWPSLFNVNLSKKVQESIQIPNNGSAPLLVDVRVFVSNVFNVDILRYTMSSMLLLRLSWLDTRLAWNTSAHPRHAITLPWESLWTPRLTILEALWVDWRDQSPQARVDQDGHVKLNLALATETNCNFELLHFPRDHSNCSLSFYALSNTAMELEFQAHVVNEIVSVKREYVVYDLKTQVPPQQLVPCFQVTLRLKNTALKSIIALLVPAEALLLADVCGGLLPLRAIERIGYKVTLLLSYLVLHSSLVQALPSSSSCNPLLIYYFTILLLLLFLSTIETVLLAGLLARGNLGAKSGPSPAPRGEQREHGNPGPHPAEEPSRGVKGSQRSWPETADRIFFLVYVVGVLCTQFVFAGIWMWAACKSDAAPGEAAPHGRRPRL
Description: Cells were clamped at −80 mV or −60 mV. Drugs were applied by pressure ejection from modified micropipettes.

HEK293 cells = conditions: 1 mM
Description: To overcome these difficulties, HEK293 cells were transfected with either INPIONCH1 or one of the two chimeras (IS67 or IS68) and subsequently placed under selection pressure. Following transfection, positively expressing cells were selected by treatment with 1 mM neomycin and only cells that grew under these conditions were used to determine the electrophysiological characteristics of the various expressed clones.

Structure (SMILES): CC(=O)OCC[N+](C)(C)C [acteylcholine]
- activation of current on application (INPIONCH1): appeared not to activate current

Structure (SMILES): NC[C@H](O)c1ccc(O)c(O)c1 [noradrenaline]
- activation of current on application (INPIONCH1): appeared not to activate current

Structure (SMILES): O=S(=O)([O-])[O-].[Zn+2] [zinc sulphate]
- zinc activated current (INPIONCH1; zinc sulphate application): no consistent specific zinc activated current was observed
- effect on amplitude of the current in response to 5-HT (INPIONCH1; zinc sulphate applied to the cells): appeared to reduce the amplitude
- toxicity to the cells (HEK293 cells): appeared to be toxic

Structure (SMILES): NCCc1c[nH]c2ccc(O)cc12 [5-HT, serotonin]
- current on application of 5-HT (INPIONCH1; 10 μM, HEK293 cells expressing INPIONCH1): inward current
- response following a second application (desensitisation) (INPIONCH1; second application of 5-HT, stated for 'the channels'): minimal or absent
- reversal potential of 5-HT-induced current (INPIONCH1; voltage ramps -90 to +90 mV before and after 5-HT application): about 0 mV
- induction of currents before and after application of zinc sulphate (INPIONCH1; zinc sulphate 1 mM): able to induce currents

Structure (SMILES): COc1cc2c3cc1Oc1cc(ccc1O)C[C@@H]1c4c(cc(OC)c(O)c4Oc4ccc(cc4)C[C@@H]3N(C)CC2)CC[N+]1(C)C [Tubocurarine]
- effect on the 5-HT induced channel (INPIONCH1): no effect
- effect on the leak channel (INPIONCH1): no effect

Structure (SMILES): CN1CCCC1c1cccnc1 (stereo not shown) [nicotine]
- activation of current on application (INPIONCH1): appeared not to activate current
- effect on outward current recorded at positive potentials (INPIONCH1; in some cells): appeared to block outward current
